Test results as given in US20130331412A9, “Pharmaceutical Compositions and Administrations Thereof” (VERTEX PHARMACEUTICALS INCORPORATED, priority 2010, published 2013).

Key:
Test in all cases: FRT cell Ussing chamber chloride transport assay
Assay type in all cases: cell-based
[1] = molecular target: T1, human CFTR mutant D1152H (Homo sapiens, UniProt P13569, D1152H); conditions: FRT cells expressing D1152H CFTR
T1 construct: expressed in transfected cells
From the text: (§1) DNA cloning: Wild-type CFTR coding region was inserted into pcDNA5/FRT (Invitrogen, San Diego, Calif.) between EcoRV and ApaI.
(§2) Single CFTR gene mutations were introduced into the wild-type CFTR coding sequence by using QuickChange XL site-directed mutagenesis kit (Stratagene, Cambridge, UK). The CFTR coding region as well as its promoter sequence and 3′ untranslated sequence was fully sequenced to confirm the mutagenesis reaction.
(§3) The CFTR gene was stably expressed in Fisher rat thyroid (FRT) cells through FlpIn system. The FRT-FlpIn host cell line was generated by stably transfecting FRT cells with pFRT/lacZeo. The single integration of a FRT site was confirmed by Southern blot. After the mutant CFTR DNA was transfected into the FRT-FlpIn host cell line, the cells were incubate at 37° C. in Coon's modified Ham's F12 containing 10% FBS, 1% Pen/Strep, and 36 ml of Na− Bicarbonate for up to 8 passages under hygromycin selection (200 ug/ml).
(§4) All cells were grown on Costar® Snapwell™ cell culture inserts at maintained at 37° C. prior to recording. The cell culture inserts were mounted into an Ussing chamber (VCC MC8; Physiologic Instruments, Inc., San Diego, Calif.) to record ISC in the voltage-clamp mode (Vhold=0 mV). For FRT cells, the basolateral membrane was permeabilized with 360 μg/ml Nystatin and a basolateral to apical Cl− gradient was established. The basolateral bath solution contained (in mM); 135 NaCl, 1.2 CaCl2, 1.2 MgCl2, 2.4 K2HPO4, 0.6 KHPO4, 10 N-2-hydroxyethylpiperazine-N′-2-ethanesulfonic acid (HEPES), and 10 dextrose (titrated to pH 7.4 with NaOH). The apical NaCl was replaced by equimolar Na+ gluconate (titrated to pH 7.4 with NaOH). For HBE cells, the ISC was measured in the presence of a basolateral to apical Cl− gradient. The normal Cl− solution contained (in mM) 145 NaCl, 3.3 K2HPO4, 1.2 MgCl2, 1.2 CaCl2, 10 Glucose, 10 HEPES (pH adjusted to 7.35 with NaOH) and the low Cl− solution contained (in mM) 145 NaGluconate, 1.2 MgCl2, 1.2 CaCl2, 10 glucose, 10 HEPES (pH adjusted to 7.35 with NaOH). All recordings were digitally acquired using a Acquire and Analyze software (version 2; Physiologic Instruments, Inc. San Diego, Calif.).
(§5) The 10 μM forskolin stimulated response in FRT cell expressing different mutant CFTR forms or in HBE cells isolated from CF patients was normalized to the 10 μM forskolin-stimulated response in FRT cells expressing wild-type CFTR or in HBE isolated from non-CF individuals and expressed as % wild-type CFTR. In HBE, amiloride was added prior to forskolin application to block the epithelial Na+ channel.

[2] = molecular target: T2, human CFTR mutant R117C (Homo sapiens, UniProt P13569, R117C); conditions: FRT cells expressing R117C CFTR
T2 construct: expressed in transfected cells; host or cells: Fisher rat thyroid (FRT) FlpIn cells, pcDNA5/FRT
From the text: as §1, §2, §3, §4, §5

[3] = molecular target: T3, human CFTR mutant D1270N (Homo sapiens, UniProt P13569, D1270N); conditions: FRT cells expressing D1270N CFTR
T3 construct: expressed in transfected cells; host or cells: Fisher rat thyroid (FRT) FlpIn cells, pcDNA5/FRT
From the text: as §1, §2, §3, §4, §5

[4] = molecular target: T4, human CFTR mutant S945L (Homo sapiens, UniProt P13569, S945L); conditions: FRT cells expressing S945L CFTR
T4 construct: expressed in transfected cells; host or cells: Fisher rat thyroid (FRT) FlpIn cells, pcDNA5/FRT
From the text: as §1, §2, §3, §4, §5

[5] = molecular target: T5, human CFTR mutant R1070W (Homo sapiens, UniProt P13569, R1070W); conditions: FRT cells expressing R1070W CFTR
T5 construct: expressed in transfected cells; host or cells: Fisher rat thyroid (FRT) FlpIn cells, pcDNA5/FRT
From the text: as §1, §2, §3, §4, §5

[6] = molecular target: T6, human CFTR mutant G1349D (Homo sapiens, UniProt P13569, G1349D); conditions: FRT cells expressing G1349D CFTR
T6 construct: expressed in transfected cells; host or cells: Fisher rat thyroid (FRT) FlpIn cells, pcDNA5/FRT
From the text: as §1, §2, §3, §4, §5

[7] = molecular target: T7, human CFTR mutant A455E (Homo sapiens, UniProt P13569, A455E); conditions: FRT cells expressing A455E CFTR
T7 construct: expressed in transfected cells; host or cells: Fisher rat thyroid (FRT) FlpIn cells, pcDNA5/FRT
From the text: as §1, §2, §3, §4, §5

[8] = molecular target: T8, human CFTR mutant G551S (Homo sapiens, UniProt P13569, G551S); conditions: FRT cells expressing G551S CFTR
T8 construct: expressed in transfected cells; host or cells: Fisher rat thyroid (FRT) FlpIn cells, pcDNA5/FRT
From the text: as §1, §2, §3, §4, §5

[9] = molecular target: T9, human CFTR mutant S1251N (Homo sapiens, UniProt P13569, S1251N); conditions: FRT cells expressing S1251N CFTR
T9 construct: expressed in transfected cells; host or cells: Fisher rat thyroid (FRT) FlpIn cells, pcDNA5/FRT
From the text: as §1, §2, §3, §4, §5

[10] = molecular target: T10, human CFTR mutant R352Q (Homo sapiens, UniProt P13569, R352Q); conditions: FRT cells expressing R352Q CFTR
T10 construct: expressed in transfected cells; host or cells: Fisher rat thyroid (FRT) FlpIn cells, pcDNA5/FRT
From the text: as §1, §2, §3, §4, §5

[11] = molecular target: T11, human CFTR mutant L206W (Homo sapiens, UniProt P13569, L206W); conditions: FRT cells expressing L206W CFTR
T11 construct: expressed in transfected cells; host or cells: Fisher rat thyroid (FRT) FlpIn cells, pcDNA5/FRT
From the text: as §1, §2, §3, §4, §5

[12] = molecular target: T12, human CFTR mutant G970R (Homo sapiens, UniProt P13569, G970R); conditions: FRT cells expressing G970R CFTR
T12 construct: expressed in transfected cells; host or cells: Fisher rat thyroid (FRT) FlpIn cells, pcDNA5/FRT
From the text: as §1, §2, §3, §4, §5

[13] = molecular target: T13, human CFTR mutant D110E (Homo sapiens, UniProt P13569, D110E); conditions: FRT cells expressing D110E CFTR
T13 construct: expressed in transfected cells; host or cells: Fisher rat thyroid (FRT) FlpIn cells, pcDNA5/FRT
From the text: as §1, §2, §3, §4, §5

T8 sequence (P13569 whole entry G551S): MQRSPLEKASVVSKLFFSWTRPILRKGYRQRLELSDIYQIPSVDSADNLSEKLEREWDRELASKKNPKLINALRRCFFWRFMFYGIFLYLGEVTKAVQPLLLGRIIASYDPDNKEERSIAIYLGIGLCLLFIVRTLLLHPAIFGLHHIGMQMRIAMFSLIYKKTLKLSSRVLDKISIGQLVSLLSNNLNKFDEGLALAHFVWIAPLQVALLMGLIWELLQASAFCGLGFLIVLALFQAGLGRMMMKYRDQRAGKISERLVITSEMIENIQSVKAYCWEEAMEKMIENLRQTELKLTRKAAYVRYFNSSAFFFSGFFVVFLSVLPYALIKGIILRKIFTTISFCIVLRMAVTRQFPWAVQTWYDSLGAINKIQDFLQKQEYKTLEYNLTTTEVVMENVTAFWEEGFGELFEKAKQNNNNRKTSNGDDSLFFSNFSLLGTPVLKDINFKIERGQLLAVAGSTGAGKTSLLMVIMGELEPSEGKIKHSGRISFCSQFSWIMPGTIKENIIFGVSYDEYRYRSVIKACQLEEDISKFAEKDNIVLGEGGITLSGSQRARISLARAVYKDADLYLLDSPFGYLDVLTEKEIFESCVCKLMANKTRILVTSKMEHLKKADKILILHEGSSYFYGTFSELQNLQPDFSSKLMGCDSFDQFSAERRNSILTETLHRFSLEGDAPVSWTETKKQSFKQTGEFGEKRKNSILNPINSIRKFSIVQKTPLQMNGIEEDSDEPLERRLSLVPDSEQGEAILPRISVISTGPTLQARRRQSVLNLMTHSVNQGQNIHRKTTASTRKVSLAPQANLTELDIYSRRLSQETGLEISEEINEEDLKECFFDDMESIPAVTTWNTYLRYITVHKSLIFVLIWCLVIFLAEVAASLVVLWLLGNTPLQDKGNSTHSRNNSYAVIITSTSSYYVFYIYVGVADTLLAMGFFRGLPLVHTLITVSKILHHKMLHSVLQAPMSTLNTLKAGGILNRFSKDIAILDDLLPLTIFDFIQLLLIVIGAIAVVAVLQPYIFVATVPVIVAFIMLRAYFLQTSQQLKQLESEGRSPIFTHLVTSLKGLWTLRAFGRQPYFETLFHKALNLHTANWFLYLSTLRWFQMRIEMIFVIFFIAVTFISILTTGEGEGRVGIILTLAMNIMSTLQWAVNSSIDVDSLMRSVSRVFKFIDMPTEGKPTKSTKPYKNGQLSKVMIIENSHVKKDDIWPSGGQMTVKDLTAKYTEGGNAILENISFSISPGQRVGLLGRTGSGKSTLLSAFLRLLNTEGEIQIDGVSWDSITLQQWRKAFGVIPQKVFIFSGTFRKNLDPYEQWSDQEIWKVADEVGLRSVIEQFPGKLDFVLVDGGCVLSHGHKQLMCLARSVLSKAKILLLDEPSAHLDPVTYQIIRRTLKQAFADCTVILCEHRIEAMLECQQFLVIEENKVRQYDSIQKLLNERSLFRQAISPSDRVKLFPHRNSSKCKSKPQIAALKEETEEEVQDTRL
T13 sequence (P13569 whole entry D110E): as the sequence (P13569 whole entry G551S) above, with D110E, S551G counted along it
T12 sequence (P13569 whole entry G970R): as the sequence (P13569 whole entry G551S) above, with S551G, G970R counted along it
T6 sequence (P13569 whole entry G1349D): as the sequence (P13569 whole entry G551S) above, with S551G, G1349D counted along it
T4 sequence (P13569 whole entry S945L): as the sequence (P13569 whole entry G551S) above, with S551G, S945L counted along it
T2 sequence (P13569 whole entry R117C): as the sequence (P13569 whole entry G551S) above, with R117C, S551G counted along it
T11 sequence (P13569 whole entry L206W): as the sequence (P13569 whole entry G551S) above, with L206W, S551G counted along it
T7 sequence (P13569 whole entry A455E): as the sequence (P13569 whole entry G551S) above, with A455E, S551G counted along it
T3 sequence (P13569 whole entry D1270N): as the sequence (P13569 whole entry G551S) above, with S551G, D1270N counted along it
T9 sequence (P13569 whole entry S1251N): as the sequence (P13569 whole entry G551S) above, with S551G, S1251N counted along it
T1 sequence (P13569 whole entry D1152H): as the sequence (P13569 whole entry G551S) above, with S551G, D1152H counted along it
T5 sequence (P13569 whole entry R1070W): as the sequence (P13569 whole entry G551S) above, with S551G, R1070W counted along it
T10 sequence (P13569 whole entry R352Q): as the sequence (P13569 whole entry G551S) above, with R352Q, S551G counted along it

increase in chloride transport, relative to baseline chloride transport [1]: greater than or equal to 10%
increase in chloride transport, relative to baseline chloride transport [2]: greater than or equal to 10%
increase in chloride transport, relative to baseline chloride transport [3]: greater than or equal to 10%
increase in chloride transport, relative to baseline chloride transport [4]: greater than or equal to 10%
increase in chloride transport, relative to baseline chloride transport [5]: greater than or equal to 10%
increase in chloride transport, relative to baseline chloride transport [6]: greater than 10 fold
increase in chloride transport, relative to baseline chloride transport [7]: greater than or equal to 10%
increase in chloride transport, relative to baseline chloride transport [8]: greater than 10 fold
increase in chloride transport, relative to baseline chloride transport [9]: greater than 10 fold
increase in chloride transport, relative to baseline chloride transport [10]: greater than or equal to 10%
increase in chloride transport, relative to baseline chloride transport [11]: greater than or equal to 10%
increase in chloride transport, relative to baseline chloride transport [12]: greater than 10 fold
increase in chloride transport, relative to baseline chloride transport [13]: greater than or equal to 10%
SMILES: CC(C)(C)c1cc(C(C)(C)C)c(NC(=O)c2c[nH]c3ccccc3c2=O)cc1O [Compound 1, N-[2,4-bis(1,1-dimethylethyl)-5-hydroxyphenyl]-1,4-dihydro-4-oxoquinoline-3-carboxamide]
